Here are results for one compound from patent publication US11643413B2, “9-(2-oxacycloalkyl)-9H-purine-2,6-diamine derivatives and their use for the treatment of skin disorders” (UNIVERZITA PALACKEHO V OLOMOUCI, priority 2017, dated 2023).

The nature of data set [1]: Radical scavenging activity determined by ORAC. The conditions noted are these: relative to trolox; Mean ± SD (n = 3). As to the method:
The ability of compounds to scavenge free radicals in vitro was determined by Oxygen Radical Absorbance Capacity (ORAC) method. In brief, fluorescein (100 μl, […]) and 25 μl of compound solution were added into each working well in a 96-well microplate preincubated at 37° C. Thereafter, 25 μL of 250 mM AAPH was quickly added, microplate was shaken for 5 s and the fluorescence (Ex. 485 nm, Em. 510 nm) was read every 3 min over 90 min by using microplate reader Infinite 200 (TECAN, Switzerland). The net area under the curve was used to express antioxidant activity relative to trolox which was used as a standard.

For the next data set, the system named is Wistar rats. Description: Acute dermal toxicity. It is filed as in vivo. How it is done:
The test substance 114 was tested for acute dermal toxicity using Wistar rats. Testing was performed according to ČSN EN ISO 10993-11: Biologické hodnoceni zdravotnických prostředků—část 11: Zkoušky na systémovou toxicitu and according to OECD Test Guideline No. 402 Acute Dermal Toxicity Adopted 24 Feb. 1987. The study was performed as limit test: two groups of animals—5 males and 5 females at the dose of 1000 mg/kg of body weight. The pre-test was performed with 1 male and 1 female from each group. After the pilot experiment, the other animals of the group were dosed. The test substance in delivered form was applied on the shaved skin of the test animals for 24 hours. The test animals were observed 14 days after exposure to the test substance, afterwards they were sacrificed, and the necropsy for macroscopic examination of the organs was performed. […] The test substance toxicity was evaluated on the basis of mortality, body weight changes, and clinical signs of toxicity during the observation period and necropsy findings at the end of the study. According to the results of study, the value of Maximum Tolerated Dose (dermal) of the test substance for rats of both sexes is higher than 1000 mg/kg of body weight.

The nature of data set [2]: Calcein AM cytotoxicity, BJ. To be noted: human, BJ foreskin fibroblasts.
Source text: (§1) One of the parameters used, as the basis for cytotoxicity assays, is the metabolic activity of viable cells. For example, a microtiter assay, which uses the Calcein AM, is now widely used to quantitate cell proliferation and cytotoxicity. […] Because only metabolically active cells cleave Calcein AM, these assays detect viable cells exclusively. The quantity of reduced Calcein AM corresponds to the number of vital cells in the culture.
(§2) Mouse fibroblasts NIH3T3; mouse immortalized bone marrow macrophages B2.4 and B10A.4, and BJ (human foreskin fibroblasts) were used for routine screening of compounds. The cells were maintained in Nunc/Corning 80 cm^2 plastic tissue culture flasks and cultured in cell culture medium (DMEM with 5 g/l glucose, 2 mM glutamine, 100 U/ml penicillin, 100 μg/ml streptomycin, 10% fetal calf serum and sodium bicarbonate).
(§3) The cell suspensions that were prepared and diluted according to the particular cell type and the expected target cell density (2.500-30.000 cells per well based on cell growth characteristics) were added by pipette (80 μl) into 96/well microtiter plates. Inoculates were allowed a pre-incubation period of 24 hours at 37° C. and 5% CO2 for stabilisation. Four-fold dilutions of the intended test concentration were added at time zero in 20 μl aliquots to the microtiter plate wells. Usually, the compound tested was evaluated at six 4-fold dilutions. […] All compound concentrations were examined in duplicates. Incubations of cells with the tested compounds lasted for 72 hours at 37° C., in 5% CO2 atmosphere and 100% humidity. At the end of the incubation period, the cells were assayed by using Calcein AM. Ten microliters of the stock solution were pipetted into each well and incubated for 1 hour. Fluorescence (FD) was measured with the Labsystem FIA Reader Fluoroscan Ascent (UK).
The nature of data set [3]: Calcein AM cytotoxicity, B10A.4 (first column). To be noted: mouse, B10A.4 immortalized bone marrow macrophages.
Source text: as §1, §2, §3

Consider `CN(C)c1nc(NCc2ccco2)c2ncn(C3CCCCO3)c2n1` (centres unmarked) [Compound 114, 2-(Dimethylamino)-6-furfurylamino-9-(tetrahydro-2H-pyran-2-yl)-9H-purine], for which the “ORAC (compound/trolox)” value in data set [1] is 0.211 ± 0.018. For the same compound, the mortality result in the data set with Wistar rats (1000 mg/kg of body weight dermal, 14 days observation) is “did not cause death of animals”. Further, the “Maximum Tolerated Dose (dermal)” value in the data set on Wistar rats (24 hours on shaved skin, rats of both sexes) was “higher than 1000 mg/kg of body weight”. The IC50 at 72 h in data set [2] and in data set [3] was greater than 167 µM throughout.
